According to patent US10363299B2, “Compositions and methods for preventing and treating rhinovirus infections” (priority 2015, dated 2019):
Several values for one entry are separate records, joined by “and”; a condition that tells them apart may be missing. Equal values may be shown once.

Tests used:
CD4+ T cells = assay: Tetramer-guided epitope mapping (TGEM): pMHCII tetramer staining of PBMC cultures stimulated with RV peptides; assay type: cell-based, human; settings: one value per subject
Excerpt: (§1) Peptide libraries consisting of 20mers with a 12 amino acid overlap were generated to span the VP1, VP2 and VP4 protein sequences of RV-A16, and VP1 and VP2 protein sequences of RV-A39 (UniprotKB accession # Q82122, Q5XLP5). […] Biologically relevant pMHCII complexes were identified by tetramer-guided epitope mapping (TGEM). This involved 2 steps: First, PBMC cultures established from subjects with known HLA-DR types were stimulated with RV peptide pools derived from VP1, VP2, or VP4, and then stained with pMHCII tetramer pools composed of HLA-DR molecules corresponding to those expressed in the test subject; Second, positive signals were de-convoluted by repeating and staining with single-peptide tetramers. Tetramers that gave strong positive signals (˜1% of total CD4+ T cells) in the single peptide-tetramer screen in more than one subject, were then re-tested for their ability to detect RV-specific CD4+ T cells in non-stimulated PBMCs (denoted as ex vivo analysis) in multiple subjects.
(§2) All experiments were performed in subjects expressing HLA-DR molecules corresponding to the selected tetramer. Precursor frequencies of circulating tetramer+ cells were then calculated by established methods. Tetramer+ cells were phenotyped for surface markers by staining PBMCs with PE-conjugated tetramers, labeling with anti-PE magnetic beads, enriching with an AutoMACS separator (Miltenyi Biotec, Auburn, Calif., USA), and then counterstaining for surface markers. A tetramer displaying an irrelevant peptide, GAD555-567, was used as a staining control. For simplicity, identified RV-A16 peptide epitopes were given a numerical designation.

RV-specific CD4+ T cells = assay: Direct ex vivo pMHCII tetramer staining of non-stimulated PBMCs; assay type: cell-based, human; set-up: key to Validated: Y means validated; settings: for Ex Vivo Frequency (# per 10^6 CD4): directly ex vivo, without culture, one value per subject; for Validated: reliable ex vivo signal
Excerpt: as §1, §2

[1] = HLA allele 1*0404 tetramer, peptide-stimulated PBMC cultures
[2] = HLA allele 1*1501 tetramer, peptide-stimulated PBMC cultures
[3] = HLA allele 1*0701 tetramer, peptide-stimulated PBMC cultures
[4] = HLA allele 1*1101 tetramer, peptide-stimulated PBMC cultures
[5] = HLA allele 1*0101 tetramer, tetramer-positive CD4+ T cells in peptide-stimulated PBMC cultures
[6] = HLA allele 1*0401 tetramer, peptide-stimulated PBMC cultures
[7] = HLA allele 1*0301 tetramer, peptide-stimulated PBMC cultures

AAKDGHIGHIVMQYMYVPPG [VP1P17]
In Vitro Frequency (% CD4) (CD4+ T cells; [1]): 2.00 % CD4 and 2.99 % CD4 and 2.60 % CD4
Ex Vivo Frequency (# per 10^6 CD4) (RV-specific CD4+ T cells; HLA allele 1*0404 tetramer): 112 # per 10^6 CD4

ASKFHQGTLLVVMIPEHQLA [VP2P15]
In Vitro Frequency (% CD4) (CD4+ T cells; [1]): 0.98 % CD4 and 0.81 % CD4
In Vitro Frequency (% CD4) (CD4+ T cells; [2]): 0.55 % CD4 and 0.53 % CD4

EITMVPSVAAKDGHIGHIVM [VP1P16]
In Vitro Frequency (% CD4) (CD4+ T cells; [3]): 0.60 % CD4 and 0 % CD4

EQLHKVKVVTRIYHKAKHTK [VP1P29]
In Vitro Frequency (% CD4) (CD4+ T cells; [4]): 3.35 % CD4 and 2.79 % CD4
Ex Vivo Frequency (# per 10^6 CD4) (RV-specific CD4+ T cells; HLA allele 1*1101 tetramer): 0 # per 10^6 CD4 (2×) and 3 # per 10^6 CD4

FTYARFDSEITMVPSVAAKD [VP1P15]
In Vitro Frequency (% CD4) (CD4+ T cells; [3]): 0.26 % CD4 and 0 % CD4

FWQHGQPFPRFSLPFLSIAS [VP1P22]
In Vitro Frequency (% CD4) (CD4+ T cells; HLA allele DRB5 tetramer, peptide-stimulated PBMC cultures): 3.52 % CD4 and 0.74 % CD4
Ex Vivo Frequency (# per 10^6 CD4) (RV-specific CD4+ T cells; HLA allele DRB5 tetramer): 10 # per 10^6 CD4 and 4 # per 10^6 CD4

GIFGENMFYHFLGRSGYTVH [VP2P12]
In Vitro Frequency (% CD4) (CD4+ T cells; [5]): 0.63 % CD4 and 0 % CD4 and 1.23 % CD4
In Vitro Frequency (% CD4) (CD4+ T cells; [4]): 1.55 % CD4 and 0 % CD4 and 0.38 % CD4

HIVMQYMYVPPGAPIPTTRN [VP1P18]
In Vitro Frequency (% CD4) (CD4+ T cells; [5]): 3.51 % CD4 and 0 % CD4 (2×)
In Vitro Frequency (% CD4) (CD4+ T cells; [6]): 0 % CD4 and 0.65 % CD4
In Vitro Frequency (% CD4) (CD4+ T cells; [1]): 1.84 % CD4 and 4.22 % CD4 and 2.76 % CD4
Ex Vivo Frequency (# per 10^6 CD4) (RV-specific CD4+ T cells; HLA allele 1*0401 tetramer): 2 # per 10^6 CD4
Ex Vivo Frequency (# per 10^6 CD4) (RV-specific CD4+ T cells; HLA allele 1*0404 tetramer): 247 # per 10^6 CD4 and 10 # per 10^6 CD4 and 52 # per 10^6 CD4 and 5 # per 10^6 CD4
Validated (RV-specific CD4+ T cells; HLA allele 1*0404 tetramer): Y

ISNIVPITVSISPMCAEFSG [VP2P30]
In Vitro Frequency (% CD4) (CD4+ T cells; [2]): 0.46 % CD4 and 0 % CD4

ITVSISPMCAEFSGARAKTV [VP2P31]
In Vitro Frequency (% CD4) (CD4+ T cells; [2]): 0.37 % CD4 and 0 % CD4

LDSKMWNSTSKGWWWKLPDA [VP2P9]
In Vitro Frequency (% CD4) (CD4+ T cells; [4]): 0.22 % CD4 and 0 % CD4 (2×)

LLGNLLIFPHQFINLRSNNS [VP2P23]
In Vitro Frequency (% CD4) (CD4+ T cells; [5]): 1.6 % CD4 and 3.19 % CD4 and 1.58 % CD4

LLVVMIPEHQLATVNKGNVN [VP2P16]
In Vitro Frequency (% CD4) (CD4+ T cells; [2]): 0 % CD4 and 3 % CD4

NEKQPSDDNWLNFDGTLLGN [VP2P21]
In Vitro Frequency (% CD4) (CD4+ T cells; [7]): 1.57 % CD4 and 0.87 % CD4
In Vitro Frequency (% CD4) (CD4+ T cells; [6]): 5.13 % CD4 and 0.89 % CD4
In Vitro Frequency (% CD4) (CD4+ T cells; [1]): 0 % CD4 and 0.65 % CD4
Ex Vivo Frequency (# per 10^6 CD4) (RV-specific CD4+ T cells; HLA allele 1*0301 tetramer): 29 # per 10^6 CD4 and 4 # per 10^6 CD4 and 6 # per 10^6 CD4
Validated (RV-specific CD4+ T cells; HLA allele 1*0301 tetramer): Y
Ex Vivo Frequency (# per 10^6 CD4) (RV-specific CD4+ T cells; HLA allele 1*0401 tetramer): 9 # per 10^6 CD4 and 63 # per 10^6 CD4 and 3 # per 10^6 CD4
Validated (RV-specific CD4+ T cells; HLA allele 1*0401 tetramer): Y

NWLNFDGTLLGNLLIFPHQF [VP2P22]
In Vitro Frequency (% CD4) (CD4+ T cells; [5]): 0.35 % CD4 and 0 % CD4 (2×)
In Vitro Frequency (% CD4) (CD4+ T cells; [7]): 2.61 % CD4 and 0.75 % CD4
In Vitro Frequency (% CD4) (CD4+ T cells; [6]): 3.38 % CD4 and 0.89 % CD4
In Vitro Frequency (% CD4) (CD4+ T cells; [4]): 0 % CD4 (2×) and 1.31 % CD4
Ex Vivo Frequency (# per 10^6 CD4) (RV-specific CD4+ T cells; HLA allele 1*0401 tetramer): 1 # per 10^6 CD4
